# Reference: article PMC5889410, “Design and Biological Evaluation of Antifouling Dihydrostilbene Oxime Hybrids” (Marine Biotechnology (New York, N.y.), 2018)
# Where two headings read alike, the source gives them in different places.
# Key:
# Cylindrotheca closterium [1] = conditions: cited from earlier work
# Vibrio aestuarianus [2] = conditions: cited from earlier work
# Vibrio harveyi [3] = conditions: cited from earlier work
# [4] = tested on: Balanus improvisus cyprid larvae; assay: whole plant or invertebrate; format: in vivo; conditions: Amphibalanus improvisus, 120 h, read-out: IC50 (cyprid settlement inhibition)
# Description: Cyprid larvae of B. improvisus were reared in a laboratory cultivating system at Tjärnö Marine Biological Laboratory, University of Gothenburg, Sweden, as previously described by Berntsson et al. ([2000]). Four pure, but non-axenic, marine microalgae (obtained from Algobank, Caen, France) and 10 marine bacterial strains were used (Table 1) as representative microfoulers. These strains represent fouling species encountered in both estuarine and marine environments (Moodie et al. [2017b]). The bacteria were grown at 26 °C in a marine medium, composed of 0.5% peptone (neutralized bacteriological peptone, Oxoid Ltd.) in filtered (Whatman 1001–270, pore size 11 μm) natural seawater. Microalgae were grown and maintained at 22 °C in F/2 medium.
# Stock solutions of compounds in DMSO were serially diluted in untreated polystyrene Petri dishes containing 10 mL of filtered (0.2 μm) seawater, affording final concentrations ranging from 0.1 to 10 μg/mL. Freshly molted balanide cyprids (18–22) were added to each Petri dish and incubated at ambient temperature (20–25 °C) for 5 days. Cyprid metamorphosis was assessed using a dissecting microscope where the numbers of juvenile settled, free-swimming, and dead cyprids were noted. Initial compound screening was conducted at 5 μg/mL, and full IC50 determination was performed only on compounds displaying > 50% inhibition at that concentration. The IC50 was defined as the concentration preventing 50% of the cyprid settlement on the Petri dish surface. Each concentration was replicated four times (n = 4), and dishes containing 0.1% of DMSO were used as negative controls. The commercial AF agent Sea-nine™ was employed as a positive control.
# Vibrio proteolyticus [5] = conditions: cited from earlier work
# [6] = tested on: Pleurochrysis roscoffensis; conditions: cited from earlier work
# Vibrio harveyi [7] = conditions: cited from earlier work; remark: listed apart in the source
# Halomonas aquamarina [8] = conditions: cited from earlier work
# Vibrio carchariae [9] = conditions: cited from earlier work
# Halamphora coffeaeformis [10] = conditions: cited from earlier work
# Halamphora coffeaeformis [11] = conditions: cited from earlier work; remark: listed apart in the source
# Shewanella putrefaciens = conditions: cited from earlier work
# Porphyridium purpureum [12] = conditions: cited from earlier work
# Vibrio aestuarianus [13] = conditions: cited from earlier work; remark: listed apart in the source
# Vibrio carchariae [14] = conditions: cited from earlier work; remark: listed apart in the source
# [15] = tested on: Pleurochrysis roscoffensis; conditions: cited from earlier work; remark: listed apart in the source
# Cylindrotheca closterium [16] = conditions: cited from earlier work; remark: listed apart in the source
# Vibrio natriegens = conditions: cited from earlier work
# Vibrio proteolyticus [17] = conditions: cited from earlier work; remark: listed apart in the source
# Halomonas aquamarina [18] = conditions: cited from earlier work; remark: listed apart in the source
# Roseobacter litoralis = conditions: cited from earlier work
# [19] = tested on: Pseudoalteromonas elyakovii; conditions: cited from earlier work
# Porphyridium purpureum [20] = conditions: cited from earlier work; remark: listed apart in the source
# Ciona savignyi = tested on: Ciona savignyi; parameters: method as in Moodie et al. [2017b]; conditions: ref Moodie et al. [2017b], cited from earlier work
# marine bacteria = conditions: panel of marine bacteria; ref Moodie et al. [2017b]; cited from earlier work
# [21] = tested on: Balanus improvisus cyprid larvae; conditions: cited from earlier work
compound,measurement,setting,value
CCCCCCCCn1sc(Cl)c(Cl)c1=O [Sea-nine™],"MIC against the growth (G) of microalgae, C. closterium",Cylindrotheca closterium [1]; ref Trepos et al. ([2015]),< 0.01 mg/L
same,"MIC against the growth of marine bacteria, V.a.",Vibrio aestuarianus [2]; ref Trepos et al. ([2015]),< 0.01 mg/L
same,"MIC against the adhesion of marine bacteria, V.h.",Vibrio harveyi [3]; ref Trepos et al. ([2015]),1 mg/L
same,IC50,[4],0.25 mg/L
same,"MIC against the growth of marine bacteria, V.p.",Vibrio proteolyticus [5]; ref Trepos et al. ([2015]),0.01 mg/L
same,"MIC against the growth (G) of microalgae, P. roscoffensis",[6]; ref Trepos et al. ([2015]),< 0.01 mg/L
same,"MIC against the growth of marine bacteria, V.h.",Vibrio harveyi [7]; ref Trepos et al. ([2015]),1 mg/L
same,"MIC against the adhesion of marine bacteria, H.a.",Halomonas aquamarina [8]; ref Trepos et al. ([2015]),< 0.01 mg/L
same,"MIC against the growth of marine bacteria, V.c.",Vibrio carchariae [9]; ref Trepos et al. ([2015]),< 0.01 mg/L
same,"MIC against the adhesion (A) of microalgae, H. coffeaformis",Halamphora coffeaeformis [10]; ref Trepos et al. ([2015]),< 0.01 mg/L
same,"MIC against the growth (G) of microalgae, H. coffeaformis",Halamphora coffeaeformis [11]; ref Trepos et al. ([2015]),< 0.01 mg/L
same,"MIC against the growth of marine bacteria, S.p.",Shewanella putrefaciens; ref Trepos et al. ([2015]),1 mg/L
same,"MIC against the growth (G) of microalgae, P. purpureum",Porphyridium purpureum [12]; ref Trepos et al. ([2015]),< 0.01 mg/L
same,"MIC against the adhesion of marine bacteria, V.a.",Vibrio aestuarianus [13]; ref Trepos et al. ([2015]),1 mg/L
same,"MIC against the adhesion of marine bacteria, V.c.",Vibrio carchariae [14]; ref Trepos et al. ([2015]),< 0.01 mg/L
same,"MIC against the adhesion (A) of microalgae, P. roscoffensis",[15]; ref Trepos et al. ([2015]),< 0.01 mg/L
same,"MIC against the adhesion (A) of microalgae, C. closterium",Cylindrotheca closterium [16]; ref Trepos et al. ([2015]),< 0.01 mg/L
same,"MIC against the growth of marine bacteria, V.n.",Vibrio natriegens; ref Trepos et al. ([2015]),1 mg/L
same,"MIC against the adhesion of marine bacteria, V.p.",Vibrio proteolyticus [17]; ref Trepos et al. ([2015]),0.01 mg/L
same,"MIC against the growth of marine bacteria, H.a.",Halomonas aquamarina [18]; ref Trepos et al. ([2015]),0.1 mg/L
same,"MIC against the growth of marine bacteria, R.l.",Roseobacter litoralis; ref Trepos et al. ([2015]),1 mg/L
same,"MIC against the growth of marine bacteria, P.e.",[19]; ref Trepos et al. ([2015]),0.1 mg/L
same,"MIC against the adhesion (A) of microalgae, P. purpureum",Porphyridium purpureum [20]; ref Trepos et al. ([2015]),< 0.01 mg/L
COc1ccc(CCc2ccccc2)cc1OC [Compound 2],"MIC against the growth (G) of microalgae, C. closterium",Cylindrotheca closterium [1]; ref Moodie et al. ([2017b]),0.01 mg/L
same,"MIC against the growth of marine bacteria, V.a.",Vibrio aestuarianus [2]; ref Moodie et al. ([2017b]),10 mg/L
same,"MIC against the adhesion of marine bacteria, V.h.",Vibrio harveyi [3]; ref Moodie et al. ([2017b]),– (Not active at > 10 μg/mL)
same,"MIC against the growth of marine bacteria, V.p.",Vibrio proteolyticus [5]; ref Moodie et al. ([2017b]),– (Not active at > 10 μg/mL)
same,"inhibition of settlement, in words",Ciona savignyi; even after 5 days,effectively inhibited
same,IC50 (settlement inhibition),Ciona savignyi,1.1 mg/L
same,"toxicity, in words",Ciona savignyi,low toxicity
same,"MIC against the growth (G) of microalgae, P. roscoffensis",[6]; ref Moodie et al. ([2017b]),0.01 mg/L
same,"MIC against the growth of marine bacteria, V.h.",Vibrio harveyi [7]; ref Moodie et al. ([2017b]),– (Not active at > 10 μg/mL)
same,"MIC against the adhesion of marine bacteria, H.a.",Halomonas aquamarina [8]; ref Moodie et al. ([2017b]),– (Not active at > 10 μg/mL)
same,"MIC against the growth of marine bacteria, V.c.",Vibrio carchariae [9]; ref Moodie et al. ([2017b]),– (Not active at > 10 μg/mL)
same,"MIC against the adhesion (A) of microalgae, H. coffeaformis",Halamphora coffeaeformis [10]; ref Moodie et al. ([2017b]),1 mg/L
same,"MIC against the growth (G) of microalgae, H. coffeaformis",Halamphora coffeaeformis [11]; ref Moodie et al. ([2017b]),0.01 mg/L
same,"MIC against the growth of marine bacteria, S.p.",Shewanella putrefaciens; ref Moodie et al. ([2017b]),0.1 mg/L
same,Activity against bacterial adhesion,marine bacteria,inactive
same,"MIC against the growth (G) of microalgae, P. purpureum",Porphyridium purpureum [12]; ref Moodie et al. ([2017b]),1 mg/L
same,"MIC against the adhesion of marine bacteria, V.a.",Vibrio aestuarianus [13]; ref Moodie et al. ([2017b]),– (Not active at > 10 μg/mL)
same,"MIC against the adhesion of marine bacteria, V.c.",Vibrio carchariae [14]; ref Moodie et al. ([2017b]),– (Not active at > 10 μg/mL)
same,"MIC against the adhesion (A) of microalgae, P. roscoffensis",[15]; ref Moodie et al. ([2017b]),1 mg/L
same,"MIC against the adhesion (A) of microalgae, C. closterium",Cylindrotheca closterium [16]; ref Moodie et al. ([2017b]),0.1 mg/L
same,"MIC against the growth of marine bacteria, V.n.",Vibrio natriegens; ref Moodie et al. ([2017b]),– (Not active at > 10 μg/mL)
same,"MIC against the adhesion of marine bacteria, V.p.",Vibrio proteolyticus [17]; ref Moodie et al. ([2017b]),– (Not active at > 10 μg/mL)
same,"MIC against the growth of marine bacteria, H.a.",Halomonas aquamarina [18]; ref Moodie et al. ([2017b]),0.01 mg/L
same,"MIC against the growth of marine bacteria, R.l.",Roseobacter litoralis; ref Moodie et al. ([2017b]),10 mg/L
same,IC50 (cyprid settlement inhibition),"[21]; B. improvisus, ref Moodie et al. ([2017b])",0.75 mg/L
same,Toxicity (%) (dead cyprids),"[21]; B. improvisus, reported at 5 μg/mL, ref Moodie et al. ([2017b])",5.3%
same,"toxicity, in words","[21]; Balanus improvisus, ref Moodie et al. [2017b]",low toxicity
same,"MIC against the growth of marine bacteria, P.e.",[19]; ref Moodie et al. ([2017b]),10 mg/L
same,"MIC against the adhesion (A) of microalgae, P. purpureum",Porphyridium purpureum [20]; ref Moodie et al. ([2017b]),10 mg/L
